Assay results from patent US20240002424A1, “HEXOSAMINE COMPOUNDS AND METHODS THEREOF” (National Institute of Immunology, priority 2021, published 2024).

Key:
HEK293 cells = conditions: cited from earlier work
HL-60 cells [1] = test: MAL-II lectin binding on intact cells by flow cytometry; format: cell-based, human; conditions: 50 μM, 24 h
HL-60 cells [2] = test: Static cell adhesion to mouse E-selectin-Fc (mCD62E) coated surfaces; format: cell-based, human; conditions: HL-60 pre-incubated 50 μM, 48 h; adhesion 60 min
Method: Effect of ManNAc analogues on cell adhesion to E-selectin and L-selectin coated surfaces: This assay was performed in 96-well polystyrene plates under sterile conditions. The plates were prepared freshly on the day of adhesion experiments. Wells were first coated with protein-G (200 ng in 50 μL PBS per well) for 1.0 h at room temperature (RT) followed by PBS washes (2×0.1 mL). Then either recombinant mouse E-selectin-Fc chimera or L-selectin-Fc chimera (20 ng in 50 μL PBS per well) was added to the wells and plate was left undisturbed for 1.0 h at RT. Wells were aspirated and washed with PBS (2×0.1 mL) followed by blocking with 1.0% (w/v) BSA in 50 μL PBS per well for 1.0 h at RT. After blocking, the wells were washed with PBS (3×0.1 mL).
HL-60 cells (3.0×10^5 cells per mL; 2.0 mL in six well plates) were incubated with 50 μM ManNAc analogues, harvested at 48 h, washed once with serum free RPMI medium (0.5 mL), and resuspended in serum free RPMI 1640 media containing 1.5 mM CaCl2) (4.0×10^5 cells/mL in 1.0 mL). The single cell suspension was added to each well (2.0×10^4 cells in 50 μL media per well) and allowed to adhere for 1.0 h at 37° C. in a CO2 incubator. […] Images were captured at 10× magnification using Olympus IX53 fluorescence microscope. […] The images were analyzed manually and the total number of adherent cells per well for each condition were plotted.

Compound | increase of total sialic acid levels (HEK293 cells) | share of sialic acid being modified N-cyclopropanoyl-D-neuraminic acid (HEK293 cells) | MAL-II binding on intact cells compared to untreated cells (HL-60 cells [1]) | increase in the numbers of adhered cells on mCD62E coated surface (HL-60 cells [2])
CC(=O)OC[C@H]1O[C@H](OC(C)=O)[C@@H](NC(=O)C2CC2)[C@@H](OC(C)=O)[C@@H]1OC(C)=O [Compound 1a, 1,3,4,6-tetra-O-acetyl-2-cyclopropanoylamino-2-deoxy-α-D-mannopyranose] | two folds | more than 50% | significant gain | 
CC(=O)OC[C@H]1OC(OC(C)=O)[C@@H](NC(=O)C2CCC2)[C@@H](OC(C)=O)[C@@H]1OC(C)=O (stereo partly drawn) [Compound 1b, (3S,4R,5S,6R)-6-(acetoxymethyl)-3-(cyclobutanecarboxamido)tetrahydro-2H-pyran-2,4,5-triyl triacetate] |  |  | significant gain | about 40%
